Experimental data taken from publication PMC8305389, “Tuning Photodynamic Properties of BODIPY Dyes, Porphyrins’ Little Sisters” (Molecules, 2021).
Marks after values point to notes of the source that are not given here.

Columns and labels:
[1] = tested on: SK-MEL-28 cells; assay: Dark toxicity (without irradiation), Neutral Red uptake; format: cell-based, human; settings: 24 h in the dark, compounds precipitated over listed values
Procedure: (§1) The human cervical carcinoma (HeLa) and human melanoma (SK-MEL-28) cell lines were purchased from the American Type Cell Culture Collection (ATCC; Manassas, VA, USA). Both cell lines were cultured in Dulbecco’s modified Eagle’s medium (DMEM) without phenol red (Lonza, Verviers, Belgium) and supplemented with 10% heat-inactivated fetal bovine serum (Sigma-Aldrich (Merck, Darmstadt, Germany), 1% penicillin/streptomycin solution (Lonza), 10 mM HEPES buffer (Lonza), and 4 mM ultraglutamine I (alanyl-L-glutamine; Lonza). The cell lines were cultured in 75 cm^2 tissue culture flasks (TPP, Trasadingen, Switzerland) and maintained in a CO2 incubator at 37 °C in a humidified atmosphere of 5% CO2 and subcultured every 3−4 days. For the cytotoxicity experiments (phototoxicity and dark toxicity), cells were seeded into 96-well plates (TPP) at a density of 7.5 × 10^3 (HeLa and SK-MEL-28) cells per well for 24 h.
(§2) Stock solutions of the investigated compounds were prepared in DMSO at a concentration of 0.5 mM (4b) or 1 mM (all other compounds) and were sterilized by filtration through 0.22 μm syringe MCE filters. The stock solutions were diluted by the above-mentioned cell culture medium to the required concentrations. The maximum DMSO concentration in the medium in the experiments was 1% (2% in case of cpd. 4b). Cytoxicity of DMSO at corresponding concentrations (without studied compounds) was assessed in all cytotoxicity experiments as well—no toxicity against SK-MEL-28 or HeLa cells was observed.
To assess dark toxicities (inherent toxicities of the studied compounds without irradiation), SK-MEL-28 cells were treated with studied PSs for 24 h in the dark. Viability was evaluated after two washing steps using the Neutral Red (NR; Sigma-Aldrich (Merck, Darmstadt, Germany) uptake assay, based on the ability of the living cells to incorporate NR into their intact lysosomes (concentration of NR in cell culture medium was 30 μg/mL and incubation time with NR was 2 h). The absorbance of soluble NR in cell lysate was measured at λ = 540 nm using a Tecan Infinite 200 M plate reader (Tecan, Männedorf, Switzerland). The viability of each experimental group was expressed as the percentage of the untreated controls incubated under the same conditions (100%). After staining (before lysis), the cells were briefly investigated under the microscope to verify changes in cellular morphology and the presence of NR in lysosomes (orange-red spots in the cells). These observations were in agreement with NR measurements.
(§3) The concentrations of the studied compounds that induced a 50% decrease in cellular viability after treatment under the dark conditions (TC50, the median toxic concentration) or after the photodynamic treatment (EC50, the median effective concentration) were calculated using GraphPad Prism software (version 9.1.2; GraphPad Software, Inc., San Diego, CA, USA) for each independent experiment. The data are presented as the means ± standard deviations of these values.

[2] = tested on: human melanoma (SK-MEL-28) cells; assay: Photodynamic activity (phototoxicity) after light activation, Neutral Red uptake; format: cell-based; settings: for EC50: Homo sapiens, light or radiation study, 12 h incubation, λ > 455 nm, 15.3 mW cm−2, 15 min, 13.7 J cm−2
Procedure: as §1, §2
(§4) For the photodynamic activity assessment experiments (phototoxicity), both HeLa and SK-MEL-28 cells were incubated overnight (12 h) with the studied compounds. The cells were then carefully and swiftly washed twice with a prewarmed sterile phosphate-buffered saline, fresh cell culture medium was added, and cells were subsequently irradiated for 15 min using a 450 W ozone-free Xe lamp (Newport; intensity reduced to 400 W). The lamp was equipped with a long-pass filter (Newport 20CGA-455) and an 8-cm water filter to cut off undesirable wavelengths and heat radiation, respectively (λ > 455 nm, 15.3 mW cm^−2, 15 min, 13.7 J cm^−2). Cellular viability was measured after an additional 24 h by the above-mentioned NR uptake assay. At least four independent experiments, each in triplicate, were performed.
as §3

[3] = tested on: human cervical carcinoma (HeLa) cells; assay: as above; format: cell-based; settings: for EC50: Homo sapiens, light or radiation study, HeLa, 12 h incubation, λ > 455 nm, 15.3 mW cm−2, 15 min, 13.7 J cm−2; for PDT activity improved over S3AlOHPc (fold): comparison with literature value of S3AlOHPc (ref 37); for EC50 higher than temoporfin (fold): comparison with literature value of temoporfin (ref 37)
Procedure: as §1, §2, §4, §3

[4] = Absorption and fluorescence measurements (quantum yield, lifetime); format: physicochemical; settings: MeOH; for extinction coefficient (log ε): at λmax; for fluorescence quantum yield, absolute method (ΦF(absol)): integrating sphere; for fluorescence quantum yield, relative method (ΦF(relat)): rhodamin-G6 as reference; for fluorescence lifetime (τF): λexc = 506.1 nm
Procedure: The singlet oxygen quantum yields (ΦΔ) and the fluorescence quantum yields (ΦF) of tested samples in MeOH were determined using published comparative (relative) methods with rhodamin-G6 used as a reference for fluorescence (ΦF = 0.94 in EtOH [31]), and bengal rose as a reference for singlet oxygen determinations (ΦΔ = 0.76 in MeOH [32]). Singlet oxygen measurements were performed with 1,3-diphenylisobenzofuran as the chemical scavenger of singlet oxygen by monitoring its decomposition at 417 nm. The ΦF values were also determined by an absolute method using an integrating sphere in an FLS1000 fluorimeter (Edinburgh Instruments, Edinburgh, UK). Fluorescence lifetimes were measured on the same fluorimeter upon excitation by HPL510 laser (Edinburgh Instruments, λ = 506.1 nm).

| SMILES | TC50, dark toxicity [1] | TC50/EC50, phototherapeutic index [2] | EC50 [2] [nM] | EC50 [3] [nM] | absorption maximum (λmax) [4] [nm] | emission maximum (λF) [4] [nm] | extinction coefficient (log ε) [4] | fluorescence quantum yield, absolute method (ΦF(absol)) [4] | fluorescence quantum yield, relative method (ΦF(relat)) [4] | fluorescence lifetime (τF) [4] [ns] | PDT activity improved over S3AlOHPc (fold) [3] [×] | EC50 higher than temoporfin (fold) [3] [×] |
| --- | --- | --- | --- | --- | --- | --- | --- | --- | --- | --- | --- | --- |
| CC1=CC(C)=[N+]2C1=C(c1ccc(OCCCCCCCCN3C(=O)c4ccccc4C3=O)cc1)c1c(C)cc(C)n1[B-]2(F)F [2b, 1,3,5,7-Tetramethyl-8-{4-[8-(phthalimidyl)octyloxy]phenyl}-4,4-difluoro-4-bora-3a,4a-diaza-s-indacene] | >10 ^b μM | >2.64 | 3790 ± 200 | 2400 ± 530 | 498 | 507 | 4.96 | 0.44 | 0.42 | 2.88 | – | – |
| CC1=C(I)C(C)=[N+]2C1=C(c1ccc(OCCCCCN3C(=O)c4ccccc4C3=O)cc1)c1c(C)c(I)c(C)n1[B-]2(F)F [3a, 2,6-Diiodo-1,3,5,7-tetramethyl-8-{4-[5-(phthalimidyl)pentyloxy]phenyl}-4,4-difluoro-4-bora-3a,4a-diaza-s-indacene] | >10 ^b μM | >192 | 52 ± 10 | 140 ± 10 | 530 | 546 | 4.36 | 0.022 | 0.024 | 0.17 | 10 | 3 |
| CC1=C(I)C(C)=[N+]2C1=C(c1ccc(OCCCCCCCCN3C(=O)c4ccccc4C3=O)cc1)c1c(C)c(I)c(C)n1[B-]2(F)F [3b, 2,6-Diiodo-1,3,5,7-tetramethyl-8-{4-[8-(phthalimidyl)octyloxy]phenyl}-4,4-difluoro-4-bora-3a,4a-diaza-s-indacene] | >10 ^b μM | >8.13 | 1230 ± 140 | 1570 ± 330 | 530 | 547 | 3.70 | 0.030 | 0.023 | 0.17 | – | – |
| CC1=C(Br)C(C)=[N+]2C1=C(c1ccc(OCCCCCN3C(=O)c4ccccc4C3=O)cc1)c1c(C)c(Br)c(C)n1[B-]2(F)F [4a, 2,6-Dibromo-1,3,5,7-tetramethyl-8-{4-[5-(phthalimidyl)pentyloxy]phenyl}-4,4-difluoro-4-bora-3a,4a-diaza-s-indacene] | >10 ^b μM | >123 | 81 ± 23 | 210 ± 20 | 525 | 540 | 4.72 | 0.21 | 0.19 | 1.37 | 10 | 3 |
| CC1=C(Br)C(C)=[N+]2C1=C(c1ccc(OCCCCCCCCN3C(=O)c4ccccc4C3=O)cc1)c1c(C)c(Br)c(C)n1[B-]2(F)F [4b, 2,6-Dibromo-1,3,5,7-Tetramethyl-8-{4-[8-(phthalimidyl)octyloxy]phenyl}-4,4-difluoro-4-bora-3a,4a-diaza-s-indacene] | >10 ^b μM | >45.5 | 220 ± 50 | 370 ± 70 | 523 | 538 | 4.04 | 0.23 | 0.22 | 1.54 | 10 | 3 |
| CC1=CC(C)=[N+]2C1=C(c1ccc(OCCCCCN)cc1)c1c(C)cc(C)n1[B-]2(F)F [5a, 1,3,5,7-Tetramethyl-8-[4-(5-aminopentyloxy)phenyl]-4,4-difluoro-4-bora-3a,4a-diaza-s-indacene] | >10 ^b μM | >2.78 | 3600 ± 660 | 9400 ± 700 | 498 | 507 | 4.90 | 0.43 | 0.44 | 3.25 | – | – |
| CC1=CC(C)=[N+]2C1=C(c1ccc(OCCCCCCCCN)cc1)c1c(C)cc(C)n1[B-]2(F)F [5b, 1,3,5,7-Tetramethyl-8-[4-(8-aminooctyloxy)phenyl]-4,4-difluoro-4-bora-3a,4a-diaza-s-indacene] | >10 ^b μM | >4.13 | 2420 ± 460 | 1570 ± 330 | 498 | 507 | 4.00 | 0.50 | 0.47 | 3.22 | – | – |
